# Data from patent US20140094465A1, “Compounds as S-Nitrosoglutathione Reductase Inhibitors” (N30 PHARMACEUTICALS, INC., priority 2011, published 2014).
# Biological target: T1, S-nitrosoglutathione reductase (GSNOR) (Homo sapiens, UniProt P11766)
# T1 construct: made in house; host or cells: E. coli
# Assay: GSNOR assay (inhibition of GSNOR activity, NADH absorbance at 340 nm)
# Format: biochemical
# Conditions: GSNOR inhibitor activity, Tables 1-6; read-out: IC50 range
# Description: Various compounds were tested in vitro for their ability to inhibit GSNOR activity.
# GSNOR expression and purification is described in Biochemistry 2000, 39, 10720-10729.
# Pre-cultures were grown from stabs of a GSNOR glycerol stock in 2XYT media containing 100 ug/ml ampicillin after an overnight incubation at 37° C. […] GSNOR expression was induced with 0.1% arabinose in an overnight incubation at 20° C.
# E. coli cell paste was lysed by nitrogen cavitation and the clarified lysate purified by Ni affinity chromatography on an AKTA FPLC (Amersham Pharmacia). The column was eluted in 20 mM Tris pH 8.0/250 mM NaCl with a 0-500 mM imidazole gradient. Eluted GSNOR fractions containing the Smt-GSNOR fusion were digested overnight with Ulp-1 at 4° C. to remove the affinity tag then re-run on the Ni column under the same conditions. GSNOR was recovered in the flowthrough fraction and for crystallography is further purified by Q-Sepharose and Heparin flowthrough chromatography in 20 mM Tris pH 8.0, 1 mM DTT, 10 uM ZnSO4.
# GSNOR assay: GSNO and enzyme/NADH Solutions are made up fresh each day. The solutions are filtered and allowed to warm to room temperature. GSNO solution: 100 mM NaPO4 (pH 7.4), 0.480 mM GSNO. 396 μL of GSNO Solution is added to a cuvette followed by 8 μL of test compound in DMSO (or DMSO only for full reaction control) and mixed with the pipette tip. Compounds to be tested are made up at a stock concentration of 10 mM in 100% DMSO. 2 fold serial dilutions are done in 100% DMSO. 8 μL of each dilution are added to an assay so that the final concentration of DMSO in the assay is 1%. The concentrations of compounds tested range from 100 to 0.003 μM. Enzyme/NADH solution: 100 mM NaPO4 (pH 7.4), 0.600 mM NADH, 1.0 μg/mL GSNO Reductase. 396 μL of the Enzyme/NADH solution is added to the cuvette to start the reaction. The cuvette is placed in the Cary 3E UV/Visible Spectrophotometer and the change in 340 nm absorbance/min at 25° C. is recorded for 3 minutes. The assays are done in triplicate for each compound concentration. IC50's for each compound are calculated using the standard curve analysis in the Enzyme Kinetics Module of SigmaPlot.
# Final assay conditions: 100 mM NaPO4, pH 7.4, 0.240 mM GSNO, 0.300 mM NADH, 0.5 μg/mL GSNO Reductase, and 1% DMSO. Final volume: 800 μL/cuvette.
# T1 sequence (P11766 whole entry): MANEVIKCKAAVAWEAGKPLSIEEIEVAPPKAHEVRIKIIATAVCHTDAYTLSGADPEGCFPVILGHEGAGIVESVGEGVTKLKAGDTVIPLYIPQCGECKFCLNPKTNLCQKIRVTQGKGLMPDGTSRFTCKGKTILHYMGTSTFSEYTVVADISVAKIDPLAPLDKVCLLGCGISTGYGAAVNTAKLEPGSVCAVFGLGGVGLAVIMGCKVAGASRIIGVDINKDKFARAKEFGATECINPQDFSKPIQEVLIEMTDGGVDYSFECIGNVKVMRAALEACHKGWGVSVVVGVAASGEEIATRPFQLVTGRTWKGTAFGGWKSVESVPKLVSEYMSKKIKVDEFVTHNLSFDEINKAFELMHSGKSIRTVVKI
row,Compound,IC50 [nM]
1,"O=C(O)c1ccc(-c2cc3ccc(O)cc3cc2F)c(Cl)c1 [III-21, 3-chloro-4-(3-fluoro-6-hydroxynaphthalen-2-yl)benzoic acid]",< 100
2,"O=C(O)c1ccc(Nc2c(C(F)(F)F)oc3cc(O)ccc3c2=O)cc1 [Compound V-15, 4-(7-hydroxy-4-oxo-2-(trifluoromethyl)-4H-chromen-3-ylamino)benzoic acid]",1000 to 10000
3,O=C(O)c1ccc(-c2ccc3cc(O)ccc3n2)cc1Cl [Compound I-9],1000 to 10000
4,"O=C(O)c1ccc(-c2ccc3c(Br)c(O)ccc3n2)cc1 [Compound I-45, 4-(5-bromo-6-hydroxyquinolin-2-yl)benzoic acid]",100 to 1000
5,"O=C(O)c1ccc(-c2cc(F)c3cc(O)ccc3n2)c(Cl)c1 [Compound I-37, 3-chloro-4-(4-fluoro-6-hydroxyquinolin-2-yl)benzoic acid]",< 100
6,"CN(c1ccc(C(=O)O)cc1)c1c(C(F)(F)F)oc2cc(O)ccc2c1=O [Compound V-14, 4-((7-hydroxy-4-oxo-2-(trifluoromethyl)-4H-chromen-3-yl)(methyl)amino)benzoic acid]",1000 to 10000
7,"O=C(O)c1ccc(/C=C/c2ccc(O)cc2O)cc1 [VI-13, (E)-4-(2,4-dihydroxystyryl)benzoic acid]",1000 to 10000
8,"O=C(O)c1ccc(-c2cc(F)c3cc(O)ccc3n2)cc1 [Compound I-26, 4-(4-fluoro-6-hydroxyquinolin-2-yl)benzoic acid]",< 100
9,"O=C(O)c1ccc(Oc2coc3cc(O)ccc3c2=O)cc1 [Compound V-12, 4-(7-hydroxy-4-oxo-4H-chromen-3-yloxy)benzoic acid]",1000 to 10000
10,"O=C(O)c1ccc(-c2cc(F)c3cc(O)ccc3n2)c(F)c1 [Compound I-40, 3-fluoro-4-(4-fluoro-6-hydroxyquinolin-2-yl)benzoic acid]",< 100
11,"O=C(O)[C@H]1CC[C@H](c2nc3ccc(O)cc3nc2C(F)(F)F)CC1 [II-27, (trans)-4-(6-hydroxy-3-(trifluoromethyl)quinoxalin-2-yl)cyclohexanecarboxylic acid]",< 100
12,"O=C(O)c1ccc(-c2ccc3cc(O)ccc3[n+]2[O-])c(Cl)c1 [Compound I-50, 2-(4-carboxy-2-chlorophenyl)-6-hydroxyquinoline 1-oxide]",100 to 1000
13,O=C(O)c1ccc(-c2c(C(F)(F)F)oc3cc(O)ccc3c2=O)cc1Cl [IV-18],< 100
14,"CC(C)c1oc2cc(O)ccc2c(=O)c1Oc1ccc(C(=O)O)cc1 [Compound V-3, 4-(7-hydroxy-2-isopropyl-4-oxo-4H-chromen-3-yloxy)benzoic acid]",1000 to 10000
15,Oc1ccc2cc(-c3ccc(-c4nnn[nH]4)cc3)ccc2c1 [III-18],< 100
16,"O=[N+]([O-])c1cc(-c2ccc3cc(O)ccc3n2)ccc1O [Compound I-61, 2-(4-hydroxy-3-nitrophenyl)quinolin-6-ol]",1000 to 10000
17,CN(C)c1cc(C(=O)O)ccc1-c1ccc2cc(O)ccc2n1 [Compound I-25],< 100
18,"O=C(O)c1ccc(Oc2c(-c3ccccc3)oc3cc(O)ccc3c2=O)cc1 [Compound V-2, 4-((7-hydroxy-4-oxo-2-phenyl-4H-chromen-3-yl)oxy)benzoic acid]",1000 to 10000
19,"O=C(O)c1ccc(CC(=O)c2ccc(O)c(F)c2)c(F)c1 [VI-4, 3-fluoro-4-(2-(3-fluoro-4-hydroxyphenyl)-2-oxoethyl)benzoic acid]",< 100
20,COCc1oc2cc(O)ccc2c(=O)c1-c1ccc(C(=O)O)cc1 [IV-2],100 to 1000
21,O=c1[nH]nc(-c2ccc(-c3ccc4cc(O)ccc4n3)cc2)s1 [Compound I-33],100 to 1000
22,"O=C(O)c1ccc(-c2cc(F)c3c(F)c(O)ccc3c2)cc1 [III-42, 4-(4,5-difluoro-6-hydroxynaphthalen-2-yl)benzoic acid]",< 100
23,"O=C(O)c1ccc(COc2ccc(O)c(F)c2F)c(F)c1 [VI-21, 4-((2,3-difluoro-4-hydroxyphenoxy)methyl)-3-fluorobenzoic acid]",< 100

# Continued, values first:
row,IC50 [nM],Compound
1,< 100,O=c1c(-c2ccc(-c3nnn[nH]3)cc2Cl)c(C(F)(F)F)oc2cc(O)ccc12 [IV-39]
2,100 to 1000,O=C(O)c1cnc(-c2ccc3cc(O)ccc3c2)nc1 [III-9]
3,100 to 1000,"O=C(O)c1ccc(NCc2ccc(O)c(F)c2F)c(F)c1 [VI-32, 4-((2,3-difluoro-4-hydroxybenzyl)amino)-3-fluorobenzoic acid]"
4,< 100,O=C(O)c1ccc(-c2c(C(F)(F)F)oc3cc(O)ccc3c2=O)s1 [IV-24]
5,< 100,"O=C(O)c1ccc(CC(=O)c2ccc(O)c(F)c2F)cc1 [VI-5, 4-(2-(2,3-difluoro-4-hydroxyphenyl)-2-oxoethyl)benzoic acid]"
6,< 100,CN(C)c1cc(C(=O)O)ccc1-c1ccc2cc(O)ccc2c1 [III-5]
7,< 100,O=c1nc(-c2ccc(-c3ccc4cc(O)ccc4n3)c(F)c2)[nH]o1 [Compound I-21]
8,100 to 1000,"Cc1c(-c2ccc(C(=O)O)cc2)ncc2cc(O)ccc12 [II-25, 4-(7-hydroxy-4-methylisoquinolin-3-yl)benzoic acid]"
9,100 to 1000,O=C(O)C1CC=C(c2ccc3cc(O)ccc3n2)CC1 (stereo not shown) [Compound I-16]
10,1000 to 10000,"CC(C(=O)c1ccc(O)cc1O)c1ccc(C(=O)O)cc1 (stereo not shown) [VI-12, 4-(1-(2,4-dihydroxyphenyl)-1-oxopropan-2-yl)benzoic acid]"
11,< 100,Cc1cc(C(=O)O)ccc1-c1c(C(F)(F)F)oc2cc(O)ccc2c1=O [IV-43]
12,1000 to 10000,"O=C(O)c1ccc(-c2cc3ccc(O)cc3cc2O)cc1 [III-25, 4-(3,6-dihydroxynaphthalen-2-yl)benzoic acid]"

# Same assay, conditions: Table 7; GSNOR inhibition, IC50 range class a/b/c; read-out: IC50
row,IC50 [nM],Compound
1,100 to 1000,"COCCn1c(-c2ccc(O)cc2)ccc1-c1ccc(C(=O)O)cc1 [VII-33, 4-(5-(4-hydroxyphenyl)-1-(2-methoxyethyl)-1H-pyrrol-2-yl)benzoic acid]"
2,100 to 1000,"O=C(O)c1ccc(-c2ccc(-c3ccc(O)cc3)s2)s1 [VII-12, 5′-(4-hydroxyphenyl)-2,2′-bithiophene-5-carboxylic acid]"
3,1000 to 10000,"O=C(O)c1cccc(-c2csc(-c3ccc(O)cc3)n2)c1 [VII-18, 3-(2-(4-hydroxyphenyl)thiazol-4-yl)benzoic acid]"
4,< 100,"O=C(O)c1ccc(-c2cnc(-c3ccc(O)cc3)s2)s1 [VII-16, 5-(2-(4-hydroxyphenyl)thiazol-5-yl)thiophene-2-carboxylic acid]"
5,100 to 1000,"O=C(O)c1cccc(-c2csc(-c3ccc(O)c(F)c3)n2)c1 [VII-5, 3-(2-(3-fluoro-4-hydroxyphenyl)thiazol-4-yl)benzoic acid]"
6,1000 to 10000,"O=C(O)c1ccc(-c2cnc(-c3ccc(O)cc3)nc2)cc1 [VII-15, 4-(2-(4-hydroxyphenyl)pyrimidin-5-yl)benzoic acid]"
7,< 100,"COCCn1c(-c2ccc(O)cc2)ccc1-c1ccc(C(=O)O)s1 [VII-25, 5-(5-(4-hydroxyphenyl)-1-(2-methoxyethyl)-1H-pyrrol-2-yl)thiophene-2-carboxylic acid]"
8,100 to 1000,"O=C(O)c1ccc(-c2ncc(-c3ccc(O)cc3)s2)s1 [VII-13, 5-(5-(4-hydroxyphenyl)thiazol-2-yl)thiophene-2-carboxylic acid]"
9,100 to 1000,"O=C(O)c1ccc(-c2ccc(-c3ccc(O)c(F)c3)s2)cc1 [VII-7, 4-(5-(3-fluoro-4-hydroxyphenyl)thiophen-2-yl)benzoic acid]"

# Same assay, conditions: Table 8; GSNOR inhibition, IC50 range class a/b/c; read-out: IC50
row,IC50 [nM],Compound
1,1000 to 10000,"O=C1c2ccc(O)cc2CCN1[C@H]1CC[C@H](C(=O)O)CC1 [VIII-16, (trans)-4-(6-hydroxy-1-oxo-3,4-dihydroisoquinolin-2(1H)-yl)cyclohexanecarboxylic acid]"
2,100 to 1000,"Cc1cc2cc(O)ccc2c(=O)n1[C@H]1CC[C@H](C(=O)O)CC1 [VIII-12, (trans)-4-(6-hydroxy-3-methyl-1-oxoisoquinolin-2(1H)-yl)cyclohexanecarboxylic acid]"
3,1000 to 10000,"O=C(O)c1ccc(-c2cc(=O)c3cc(O)ccc3[nH]2)c(F)c1 [VIII-8, 3-fluoro-4-(6-hydroxy-4-oxo-1,4-dihydroquinolin-2-yl)benzoic acid]"
4,1000 to 10000,"CSc1nc2cc(O)ccc2c(=O)n1-c1ccc(C(=O)O)cc1 [VIII-1, 4-(7-hydroxy-2-(methylthio)-4-oxoquinazolin-3(4H)-yl)benzoic acid]"
5,100 to 1000,"Oc1ccc2nc(-c3ccc(-c4nnn[nH]4)cc3)sc2c1 [VIII-5, 2-(4-(1H-tetrazol-5-yl)phenyl)benzo[d]thiazol-6-ol]"
